Patent US11185100B2 (priority 2014, dated 2021)

Molecular target: T1R1/T1R3 receptor (Felis catus, UniProt E3UMS2)
Assay: Activation of T1R1/T1R3 receptor by transmembrane compounds alone or with alanine, IMP, GMP, phenylalanine; HEK293 cells, calcium fluorescence (Example 5)
Assay type: cell-based, cat
Settings: for Max resp % of IMP +Alanine (20 mM): relative to IMP; for Thres +Alanine (20 mM) / Thres +IMP (0.2 mM): threshold concentration; for Max resp % of Ala +IMP (0.2 mM): relative to Ala; for Activity: Table 18, all transmembrane compounds tested, active / N/A (not active)
From the text: Methods: HEK293 cells that stably express T1R3 and inducibly express T1R1 were exposed to transmembrane compounds alone or in combination with one or more amino acids and/or one or more nucleotides to activate the umami receptor. Activation of the T1R1/T1R3 receptor was detected by a change in intracellular calcium levels using a calcium sensitive fluorescent dye. Cells that express T1R3 but not T1R1 were used as a control. A FLIPR® Tetra or a FlexStation® 3 was used for data capture.
In each experiment, serial dilutions of up to 10 mM of the transmembrane compound were added to the T1R1/T1R3-expressing cells.

| Structure (SMILES) | +Alanine (20 mM) Max resp % of IMP | +Alanine (20 mM) Max resp ΔF/F | +Alanine (20 mM) Thres [mM] | Max resp % of IMP +Alanine (20 mM) [%] | Thres +Alanine (20 mM) [mM] | +IMP (0.2 mM) Max resp % of Ala | Max resp ΔF/F +IMP (0.2 mM) | Max resp % of Ala +IMP (0.2 mM) [%] | Thres +IMP (0.2 mM) [mM] | Activity |
| --- | --- | --- | --- | --- | --- | --- | --- | --- | --- | --- |
| CCC(CC)NC(=O)c1ccc(OC)c(OC)c1 [3,4-dimethoxy-N-(pentan-3-yl)benzamide] | 43.9 % of IMP | 0.545 ΔF/F | 0.3 | 43.9 | 0.3 | 81.0 % of Ala | 0.9975 ΔF/F | 81.0 | 0.5 | active |
| CCC(CC)NC(=O)c1ccc(C)c(C)c1 [3,4-dimethyl-N-(pentan-3-yl)benzamide; N-(1-ethylpropyl)-3,4-dimethylbenzamide] | 97.8 % of IMP | 1.2150 ΔF/F | 3 |  |  | 125.7 % of Ala |  |  |  |  |
| CCC(CC)NC(=O)c1ccc(C)c(C)c1 [3,4-dimethyl-N-(pentan-3-yl)benzamide] |  |  |  | 97.8 | 3 |  | 1.5475 ΔF/F | 125.7 | 0.525 | active |
| COc1ccc(C(=O)NC(C)c2ccccc2)cc1C (stereo not drawn) [4-methoxy-3-methyl-N-(1-phenylethyl)benzamide] | 41.0 % of IMP | 0.51 ΔF/F | 3 | 41.0 | 3 | 95.6 % of Ala | 1.1775 ΔF/F | 95.6 | 0.35 | active |
| CCCC(C)NC(=O)c1ccc(OC)c(C)c1 (stereo not drawn) [4-methoxy-3-methyl-N-(pentan-2-yl)benzamide] | 126.0 % of IMP | 1.5650 ΔF/F | 0.050 | 126.0 | 0.050 | 128.9 % of Ala | 1.5875 ΔF/F | 128.9 | 0.025 | active |
| CCC(CC)NC(=O)c1ccc(Br)o1 [5-bromo-N-(pentan-3-yl)furan-2-carboxamide] | 126.8 % of IMP | 1.575 ΔF/F | 1 | 126.8 | 1 | 149.6 % of Ala | 1.8425 ΔF/F | 149.6 | 0.3 | active |
| CCCC(C)NC(=O)/C=C/c1ccc(OC)c(OC)c1 (stereo not drawn) [(E)-3-(3,4-dimethoxyphenyl)-N-(pentan-2-yl)acrylamide; (2E)-3-(3,4-dimethoxyphenyl)-N-(pentan-2-yl)prop-2-enamide] | 35.2 % of IMP | 0.4375 ΔF/F | 1 |  |  | 86.9 % of Ala |  |  |  |  |
